{
  "source": "patent US20230235316A1",
  "about": "“MODEL FOR INSULIN RESISTANCE” (CHILDREN'S HOSPITAL MEDICAL CENTER, priority 2020, published 2023)",
  "format_in_all_cases": "cell-based, human",
  "key": {"[1]": {"system": "sHLO", "assay": "Insulin responsiveness in sHLO (Western blot, gene expression, PCK1, glucose production)", "description": "Insulin responsiveness in the sHLO was examined. To detect insulin responsiveness, insulin starvation of sHLO and HLO controls was performed for 24 hours, followed by insulin stimulation.\nInsulin signal analysis by Western blot was performed by treating with 100 nM insulin for 20 minutes. […] Insulin responsiveness of PCK1, CREB 1, and FOXO1 was not suppressed in sHLO (FIGS. 7J-K). […] Furthermore, glucose production was not inhibited after insulin stimulation in sHLO (FIG. 7L)."}, "[2]": {"system": "PCK1 reporter HLOs", "assay": "PCK1 reporter (mScarlet fluorescence / luciferase) HLOs", "description": "To visualize and quantify HLO insulin responsiveness, iPSCs were genetically edited using the CRISPR/Cas9 system to insert a reporter construct comprising mScarlet (fluorescence) and luciferase (luminescence) genes downstream of the gluconeogenesis regulatory gene PCK1, at the 3′ end in exon 10 (FIG. 5A). FIG. 5A also depicts a schematic of the reporter function. […] When gluconeogenesis is suppressed by exposure to insulin, the expression of mScarlet and luciferase also decreases in correlation with the downregulation of PCK1. […] However, it is envisioned that other reporter constructs, such as those using alternative reporters, can be used. Furthermore, alternative insulin pathway regulatory genes are depicted in FIG. 3C to be used in lieu of PCK1.\nHuman iPSCs were gene edited to insert the fluorescence and luminescence reporter construct to the 3′ end of PCK1. […] These gene edited iPSCs were subsequently differentiated into HLOs. […] Subsequently, 100 ng/mL of insulin was applied for 3 hours, and fluorescence and luciferase activity were measured. […] FIGS. 6C-D depicts the detection of PCK1-luciferase luminescence as measured by in vitro imaging.\nThe effect of insulin concentration was tested. PCK1-luciferase HLOs were starved of insulin for 24 hours and then treated with 0 nM, 10 nM, 100 nM, or 1000 nM of insulin for 1 hour for luciferase imaging.\nThe effect of insulin treatment time was tested. Insulin starved HLOs were treated with 100 nM of insulin for 1, 2, or 3 hours (with no insulin control)."}, "[3]": {"system": "HLOs", "assay": "qPCR of gluconeogenesis and lipogenesis regulator genes in insulin-treated HLOs", "details": "HLOs insulin-starved 24 hours, insulin 100 ng/mL for 8 hours", "description": "(§1) Insulin responsiveness of HLOs was analyzed using Western blotting and qPCR. The prepared HLOs were cultured under insulin starvation for 24 hours and then exposed to insulin.\nTo analyze insulin responsiveness of gluconeogenesis and lipogenesis regulator genes in HLOs, they were treated with insulin at 100 ng/mL for 8 hours, and then RNA was extracted for qPCR. In the insulin-treated HLOs, gluconeogenesis regulatory gene expression (FOXO1, CREB1, TFE1, PCK1) was suppressed by insulin stimulation (FIG. 4B). Conversely, lipogenesis regulatory gene expression (SREBP, FASN, ACLY, ACC) was induced by insulin stimulation (FIG. 4C)."}, "[4]": {"system": "AKT phosphorylation in HLOs", "assay": "AKT phosphorylation in HLOs after insulin (Western blot)", "details": "HLOs insulin-starved 24 hours; insulin 0, 10 and 100 ng/mL for 20 minutes", "description": "as §1\nTo analyze phosphorylation of AKT activated downstream of insulin signaling. HLOs were treated with insulin at 0 ng/mL, 10 ng/mL and 100 ng/mL for 20 minutes, and then proteins were extracted for Western blot."}, "[5]": {"system": "fatty liver HLO", "assay": "Drug screening in fatty liver HLO: inflammatory gene expression", "details": "HLO treated with fatty acids for 6 days; drug exposure 48 hours", "description": "(§2) HLO were treated with fatty acids for 6 days to induce a fatty liver phenotype. Then, candidate drugs were exposed to the sHLO for 48 hours."}, "[6]": {"system": "fatty liver HLO", "assay": "Drug screening in fatty liver HLO: fat accumulation", "details": "HLO treated with fatty acids for 6 days; drug exposure 48 hours", "description": "as §2"}, "[7]": {"system": "HLO", "assay": "Fatty acid induction of steatohepatitis phenotype in HLOs", "details": "300 µM oleic acid for 72 hours", "description": "Fatty acid treatment induces a steatohepatitis phenotype in HLOs. […] DGAT½, which catalyzes the formation of triglycerides from diacylglycerol and acyl-CoA, was increased in sHLO relative to normal HLOs (FIG. 7D)."}},
  "note": "“Also recorded” adds a separate entry of the source.",
  "data": [
    {"molecule": "insulin", "values": [
      {"measurement": "glucose production", "setting": "[1]; sHLO after insulin stimulation", "result": "not affected; also recorded: not inhibited"},
      {"measurement": "insulin response of PCK1 and other gluconeogenesis genes", "setting": "[1]; sHLO insulin-starved 24 hours, then insulin stimulation", "result": "not responsive"},
      {"measurement": "phosphorylation of AKT", "setting": "[1]; sHLO insulin-starved 24 hours, 100 nM insulin for 20 minutes, Western blot", "result": "inhibited in sHLO"},
      {"measurement": "PCK1-mScarlet fluorescence and luciferase activity", "setting": "[2]; 100 ng/mL insulin for 3 hours after treatment with cAMP", "result": "downregulation; also recorded: decreased"},
      {"measurement": "luciferase activity of PCK1", "setting": "[2]; HLOs insulin-starved 24 hours, 10 nM, 100 nM or 1000 nM insulin for 1 hour", "result": "decreased"},
      {"measurement": "PCK1-luciferase activity", "setting": "[2]; cAMP-treated HLOs, 100 nM insulin for 3 hours", "result": "inhibited"},
      {"measurement": "luciferase activity of PCK1", "setting": "[2]; insulin-starved HLOs, 100 nM insulin for 1, 2 or 3 hours", "result": "reduced after 1 hour of treatment"},
      {"measurement": "gluconeogenesis regulatory gene expression (FOXO1, CREB1, TFE1, PCK1)", "setting": "[3]", "result": "suppression; also recorded: suppressed"},
      {"measurement": "lipogenesis regulatory gene expression (SREBP, FASN, ACLY, ACC)", "setting": "[3]", "result": "induction; also recorded: induced"},
      {"measurement": "AKT phosphorylation", "setting": "[4]", "result": "induces AKT phosphorylation"}
    ]},
    {"molecule": "CN(C)C(=N)N=C(N)N", "note": "[metformin]", "values": [
      {"measurement": "inflammatory gene expression (TNFa, NFKB1, NFKB2) / inflammatory response", "setting": "[5]", "result": "limited improvement"},
      {"measurement": "fat accumulation", "setting": "[6]", "result": "improvement"}
    ]},
    {"molecule": "CCCCCCCC/C=C\\CCCCCCCC(=O)O", "note": "[oleic acid]", "values": [
      {"measurement": "fat accumulation", "setting": "[7]", "result": "induces fat accumulation"}
    ]}
  ]
}
